Experimental data: US12534477B2, “Compound having KHK inhibitory effect” (HANGZHOU ZHONGMEIHUADONG PHARMACEUTICAL CO., LTD., priority 2019, dated 2026)

Experiments:
CYP1A2 = CYP1A2 (Homo sapiens (Human), UniProt P05177); type: in vitro ADME; conditions: human, microsomes, 10 min
Experimental: The inhibitory effect of test compounds on the activity of human hepatic microsomal cytochrome P450 isozymes (CYP1A2, CYP2C9, CYP2C19, CYP2D6 and CYP3A4) was determined.
First, the test compound (10 mM) was diluted in gradient to prepare working solutions (100×final concentration) with working solution concentrations: 5, 1.5, 0.5, 0.15, 0.05, 0.015, 0.005 mM, respectively, and at the same time, working solutions of each positive inhibitor of P450 isozymes (CYP1A2, CYP2C9, CYP2C19, CYP2D6 and CYP3A4) and its specific substrate mixture were prepared. Human liver microsomes frozen in a −80° C. refrigerator were thawed on ice, and diluted with PB (phosphate buffer) after all the human liver microsomes were dissolved, to prepare a working solution at a certain concentration (0.253 mg/mL). 20 μl substrate mixture was added to the reaction plate (20 μL PB was added to the Blank wells) while 158 μL human liver microsome working solution was added to the reaction plate which was placed on ice for later use. At this time, 2 μL of each concentration of the test compound (N=1) and the specific inhibitor (N=2) were added to the corresponding wells, and the corresponding organic solvents were added to the groups without inhibitors (the test compound or the positive inhibitor) as control samples (1:1 DMSO:MeOH for the test compound control sample, and 1:9 DMSO:MeOH for the positive control sample). After pre-incubation in 37° C. water bath for 10 min, 20 μL coenzyme factor (NADPH) solution was added to the reaction plate, and incubated in 37° C. water bath for 10 min. 400 μL cold acetonitrile solution (200 ng/mL Tolbutamide and Labetalol as the internal standard) was added to stop the reaction. The reaction plate was placed on a shaker and shaken for 10 min. The mixture was centrifuged at 4,000 rpm for 20 min, and 200 μl the supernatant was added to 100 μL water for sample dilution. Finally, the plate was sealed, shaken, mixed well and detected by LC/MS/MS.

[1] = Pharmacokinetic evaluation in SD rats; type: in vivo; conditions: rat, plasma
Experimental: In vivo pharmacokinetics of compounds in SD rats were tested.
Pharmacokinetic profiles in rodents following intravenous and oral administration of the compounds were tested by standard protocols. In the experiment, candidate compounds were formulated as clear solutions or homogeneous suspensions, and were administered to rats by single intravenous injection (IV, 1 mpk) and oral administration (PO, 3 mpk). The vehicle for intravenous injection was a certain proportion of PEG400 in water, and the vehicle for oral administration was a certain proportion of methylcellulose and Tween 80 in water. Whole blood was collected, and plasma was prepared. Drug concentration was analyzed by LC-MS/MS, and pharmacokinetic parameters were calculated by Phoenix WinNonlin software.

[2] = biological target: Recombinant Human Ketohexokinase (KHK) (Homo sapiens (Human), UniProt P50053); assay: Ketohexokinase assay (KHK assay), ADP-Glo; type: biochemical
Experimental: • 1. EnVision multilabel reader, Perkin Elmer; • 2. OptiPlate 384-well microplate, Perkin Elmer, Cat. No. 6007290; • 3. Recombinant Human Ketohexokinase (KHK), R&D Cat. No.: 8177-HK-020, Lot No.: DDFK0117092; • 4. Fructose (D(−)-Fructose), SCR Cat. No.: 36003034; and • 5. ADP-Glo kinase assay kit, Promega_Cat. No.: V9101.
1. preparation of Dilution Buffer containing 50 mM hydroxyethylpiperazine […] (Hepes), 140 mM KCl, 3.5 mM MgCl2, and 0.01% bovine serum albumin (BSA), pH 7.4.
2. A working solution of ketohexokinase at 2.5 times concentration was prepared with Dilution Buffer, with 50 nM ketohexokinase and 12.5 mM fructose.
3. A working solution of adenosine triphosphate (ATP) at 2.5 times concentration was prepared with Dilution Buffer, with a concentration of 250 μM.
4. Each compound was diluted starting at a concentration of 500 μM, 3-fold diluted for 9 concentration points. The final concentration of the compound in the reaction system started from 10 μM and the final concentration of dimethyl sulfoxide (DMSO) was 2%.
5. A 96-well plate was prepared as a reaction plate, and was incubated at room temperature for 5 min after adding 6 μL ketohexokinase working solution at 2.5 times concentration to each well and further adding 3 μL compound working solution to each well.
6. The first well of each row was a positive control for a compound, i.e. the same volume of the buffer was added to replace the compound and ketohexokinase. The last well was a negative control for the compound, i.e. the same volume of Dilution Buffer was added instead of the compound.
7. 6 μL ATP working solution was added to each well in a 96-well reaction plate to initiate the kinase reaction. The kinase reaction was incubated in a constant temperature heater at 28° C. for 1 h.
1. A384 plate was prepared as a detection plate, and firstly 5 μL ADP-Glo reagent was added.
2. 5 μL kinase reaction mixture from the reaction plate was added to each well and incubated in a constant temperature heater at 28° C. for 30 min.
3. 10 μL kinase detection reagent was added to each well and incubated in a constant temperature heater at 28° C. for 30 min.
4. The detection plate was placed in an EnVision multilabel reader to read the chemiluminescent signal.

[3] = tested on: fructose metabolism in mice; assay: Acute fructose feeding experiment in mice; type: in vivo; conditions: compound 10 mpk, oral fructose 1 g/kg
Experimental: The effect of test compounds on the fructose content in mice with high fructose intake was investigated.
All animals were acclimated for one week in an animal house, fed with normal chow and fasted for 16 hours before being given fructose.
1) The experiment began at −0.5 hr. A control group was given a certain volume of vehicle (a certain proportion of methylcellulose and Tween 80 in water), and an experimental group was given a certain dose of a solution of the compound (the administered volume was consistent with the vehicle).
2) 0.5 hour later and before administration of a fructose solution, a blood sample was collected at 0 hr, followed by oral administration of 1 g/kg of an aqueous fructose solution.
3) After the administration of fructose, blood samples were collected from saphenous vein of mice at 0.25, 0.5, 1, 2, 3 and 8 hr, and fructose concentration was analyzed by LC-MS/MS.

Chain of CYP1A2 (P05177 whole entry): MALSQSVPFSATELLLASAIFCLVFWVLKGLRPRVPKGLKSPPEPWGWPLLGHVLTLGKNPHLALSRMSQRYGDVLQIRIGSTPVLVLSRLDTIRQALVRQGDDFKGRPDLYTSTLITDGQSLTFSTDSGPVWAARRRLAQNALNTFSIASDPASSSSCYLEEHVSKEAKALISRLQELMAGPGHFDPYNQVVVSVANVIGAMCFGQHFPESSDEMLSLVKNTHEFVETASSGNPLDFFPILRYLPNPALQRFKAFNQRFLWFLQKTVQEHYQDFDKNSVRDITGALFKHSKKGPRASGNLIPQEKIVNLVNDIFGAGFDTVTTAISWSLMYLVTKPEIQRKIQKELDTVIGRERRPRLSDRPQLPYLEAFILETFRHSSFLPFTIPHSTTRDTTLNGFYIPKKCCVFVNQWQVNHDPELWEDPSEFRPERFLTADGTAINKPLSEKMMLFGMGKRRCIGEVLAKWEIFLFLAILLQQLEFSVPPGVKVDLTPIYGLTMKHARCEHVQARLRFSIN
Chain of Recombinant Human Ketohexokinase (KHK) (P50053 whole entry): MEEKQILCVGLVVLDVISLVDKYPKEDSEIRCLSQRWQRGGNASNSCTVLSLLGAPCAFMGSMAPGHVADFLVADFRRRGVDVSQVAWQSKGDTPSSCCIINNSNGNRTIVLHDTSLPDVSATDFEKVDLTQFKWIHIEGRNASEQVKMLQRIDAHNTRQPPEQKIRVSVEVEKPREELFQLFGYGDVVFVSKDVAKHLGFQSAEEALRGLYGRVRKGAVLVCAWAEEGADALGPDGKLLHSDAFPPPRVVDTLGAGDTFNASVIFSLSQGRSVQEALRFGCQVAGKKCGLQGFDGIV

IC50 (CYP1A2): > 50000 nM
clearance ([1]; 1 mg/kg, IV 1 mpk, read-out: Clearance rate): 1.21 mL/min/kg
bioavailability ([1]; 3 mg/kg, IV 1 mpk, PO 3 mpk, read-out: Bioavailability F): 80%
AUC ([1]; 3 mg/kg, PO 3 mpk, read-out: Integral concentration AUC for PO): 64.5 µM·h
half-life ([1]; IV 1 mpk and PO 3 mpk study, read-out: Half-life T1/2 (converted)): 2.96 h
IC50 [2]: 49 nM
SMILES: C[C@H]1CCN1c1nc(N2C[C@@H]3[C@@H](CC(=O)O)[C@@H]3C2)c2ccsc2n1 [WX004]
AUC of integral fructose concentration for dosed group [3]: 2194 nM·h
AUC of integral fructose concentration of dosed group/AUC of Integral fructose concentration of control group [3]: 5.0
